Where two headings read alike, the source gives them in different places.
Legend:
MCF-7 cells = assay: Tetrazolium based MTT assay, inhibition of cell growth, MCF-7; details: Homo sapiens, MCF7, Exp. 2
Experimental: (§1) TETRAZOLIUM BASED MTT ASSAY
MCF-7 (breast adenocarcinoma) were grown in MEM (Eagle) supplemented with non-essential amino acids, 1 mM sodium pyruvate, […] bovine insulin and 10% FBS
(§2) Cells were grown in appropriate medium to late log phase (about 80% confluency). T47-D or MCF-7 cells were then trypsinized and seeded at 4,000 or 2,000 cells/well, respectively.
(§3) Tetrazolium Based MTT Assay:
(§4) At 24 hours post seeding, serial dilutions of ethanol-solubilized drugs are prepared in the same medium and added to triplicate wells at a final concentration of 1,000 to 0.1 nM and 0.1% ethanol. On days 3 to 7 post drug addition, 50 μl of a 5 mg/ml MTT solution (3-(4,5-dimethylthiazol-2-yl)-2,5-diphenyl tetrazolium bromide in phosphate-buffered saline) is added to each well and incubation is continued at 37° C. for 2.5 hours. The plates are then spun briefly by centrifugation at 800 xg for 5 minutes, medium is aspirated from wells, and 50 μl ETOH/well is added to dissolve the formazan formed during the incubation period with MTT. After a 15 minute shaking, the optical density is determined for each well in an automatic plate reader at 570 and 660 nm. Percent inhibition of cell growth is calculated by comparing optical densities of cells treated with test compounds to those of cells treated only with 0.1% ethanol. IC50 values are determined based on the Reed and Muench formula (Am. J. Hyg. 27:493-497 1938) and the results of two independent experiments are presented below: […]

T47-D cells = assay: Tetrazolium based MTT assay, inhibition of cell growth, T47-D; details: Homo sapiens, T47D
Experimental: as §1
T47-D (breast ductal carcinoma) were grown in RPMI-1640 medium supplemented with 10 μg/ml bovine insulin and 10% fetal bovine serum (FBS).
as §2, §3, §4

[1] = test system: human neonatal keratinocytes; assay: Human Keratinocyte Antiproliferative Assay; format: cell-based; details: for IC50: read-out: average ED50 (Dose that would obtain 50% of the number of cells as compared to the control)
Experimental: Human Keratinocyte Antiproliferative Assay
Cultures were obtained from neonatal foreskin epithelial keratinocytes using standard procedures.
Human neonatal foreskins were collected by circumcision and placed into tubes containing Dulbecco's minimum essential Media (DMEM) with 10% serum. Upon arrival at the laboratory, they were mechanically trimmed of excess dermis, and treated with a solution of trypsin/ethylenediamine tetraacetic acid (EDTA) (0.05%/0.02%) at 4° C. overnight. The epidermis was stripped from the dermis, agitated in buffered saline to remove basal keratinocytes and the stratum corneum later removed. […] The cultures are incubated in humidified chambers with 5% CO2 at 37° C. with refeeding fresh media 2 to 3 times per week.
Antiproliferation Assay Protocol:
Approximately twenty-four hours after passage, the cells were refed with fresh KGM media supplemented to 1.5 mM CaCl2 that contains test compound or vehicle. Solutions of test compounds were prepared as follows: 1 milligram quantities were received in amber glass vials and stored at -20° C. Sufficient 100% ethanol was added directly to vials to obtain a millimolar solution that was subsequently aliquoted into small amber vials, overlayed with argon gas and stored at -20° C. Each stock solution was thawed once, used and discarded. Stock solutions were used within 4 to 6 weeks. Aliquots from the stock solution were diluted directly into medium and then serially diluted from micromolar to picomolar concentrations. […] Control wells are supplemented with vehicle alone at the highest concentration such as 0.1% ethanol. At the termination of the experiment prior to the cultures reaching confluency, the cells were enumerated by the following procedure. Dishes were washed with phosphate buffered saline, and then incubated with trypsin/EDTA solution for 30 minutes. Cells were suspended and an aliquot placed into isotonic buffered saline and counted on an electronic particle counter (Coulter Counter). The counter was periodically calibrated for the correct size of keratinocytes. Each well was counted in triplicate.

HL-60 tumor cell line = assay: HL-60 Differentiation Assay; format: cell-based, human; details: 4 days; for EC50: Homo sapiens, 96 h, HL-60 differentiation, read-out: Approximate ED50
Experimental: HL-60 Differentiation Assay:
The HL-60 tumor cell line was originally derived from a patient with promyleocytic leukemia and purchased from American Type Culture Collection (ATCC CCL240). […] For experimentation, cells were seeded at 0.9×10^6 cells per 25 cm^2 flask in medium supplemented with 0.25 mM sodium ascorbate. […] All compounds were handled in the following manner. Stock solutions were made of 10^-3 M solutions in ethanol and stored in amber vials overlaid with argon at -20° C. Stock solutions were diluted into medium at concentrations indicated. All flasks were supplemented with vehicle at a concentration of 0.1% ethanol. Control flasks were supplemented with vehicle alone at a concentration of 0.1% ethanol. Flasks were incubated upright for 4 days in 5% CO 2 at 37° C. On day 4, a 1 ml aliquot of cells was removed from the flasks, centrifuged for about 10 minutes, the media removed and the cells resuspended in a 0.2 ml of solution of nitroblue tetrazolium/phorbol 12 myristate 13-acetate (NBT/TPA) in media prepared on the day of enumeration as follows. Nitroblue tetrazolium was dissolved in media at 1 mg/ml. To this solution was added TPA to a final concentration of 100 ng/ml. This solution was kept in a covered vial on ice. The cells were suspended and incubated at 37° C. for 30 min. prior to transferring to ice. An aliquot was removed and the cells are counted using a hemocytometer. Cells without pigmented granules are judged to be undifferentiated while those containing blue black formazan (indicating conversion of NBT) granules were scored as differentiated. Results are expressed as percent differentiated cells by calculating the ratio of the number of dark cells per total number of cells counted.

sebaceous cells = assay: Inhibition of proliferation of sebaceous cells in vitro; format: cell-based; details: Homo sapiens, read-out: ED50 (amount of compound necessary to inhibit the proliferation of the sebaceous cells by 50%)
Experimental: Sebaceous cells were isolated from adult human sebaceous glands, derived from facial skin removed during cosmetic surgery. This method is described in an article by Doran et al. in J. Invest. Dermatol. 96:341-348 (1991).
The cells were cultured in Iscove's medium containing 10% fetal calf serum and 4 μg/ml dexamethasone on a layer of growth-arrested 3T3 mouse fibroblasts.
Cells were plated in medium without the test compound and then given the compound in fresh medium 24-48 hours after the initial plating. The cultures were given fresh medium, containing the test compound, every 48 hours. On the day of harvesting, the cultures were rinsed with 0.03% ethylenediamine tetraacetic acid (EDTA) in phosphate buffered saline (PBS), to remove only the 3T3 fibroblasts. The remaining sebocyte colonies were incubated in 0.05% trypsin/0.03% EDTA to create a single cell suspension of sebocytes. The cells were diluted, mixed vigorously to maintain a single cell suspension, and counted in a hemocytometer.
All compounds were handled in the following manner. Stock solutions were made up as 10^-2 M solutions in degassed 100% ethanol and stored at -20° C. in the dark. Solutions were never used after storage of more than a month. During experimental use the solutions, which had been aliquoted, were thawed once and used by diluting directly into complete medium to the appropriate concentration. […]

[2] = Homo sapiens, Keratinocyte, read-out: % of Control

IC50 (MCF-7 cells) [nM] | Structure (SMILES) | IC50 (T47-D cells; Exp. 1) [nM] | IC50 (T47-D cells; Exp. 2) [nM] | Avg Cell No. ([1]; Dose 10 nM) | Avg Cell No. ([1]; Dose 100 nM) | Avg Cell No. ([1]; Dose 1000 nM) | Percent Positive Cells (HL-60 tumor cell line; Dose 0.1 nM) [%] | Percent Positive Cells (HL-60 tumor cell line; Dose 0.3 nM) [%] | Percent Positive Cells (HL-60 tumor cell line; Dose 1.0 nM) [%] | Percent Positive Cells (HL-60 tumor cell line; Dose 10.0 nM) [%] | Percent Positive Cells (HL-60 tumor cell line; Dose 100.0 nM) [%] | EC50 (HL-60 tumor cell line) [nM] | also measured
0.15 | C[C@H](C/C=C/C(O)(C(F)(F)F)C(F)(F)F)C1=CC[C@H]2/C(=C/C=C3C[C@@H](O)C[C@H](O)C3)CCC[C@]12C [1,25-Dihydroxy-16,23E-diene-26,27-hexafluoro-19-norcholecalciferol] | 0.26 | 2.2 |  |  |  |  |  |  |  |  |  | 
0.05 | C=C1/C(=C\C=C2/CCC[C@]3(C)C([C@H](C)C/C=C/C(O)(C(F)(F)F)C(F)(F)F)=CC[C@@H]23)C[C@@H](O)C[C@@H]1O [1,25-Dihydroxy-16,23E-diene-26,27-hexafluorocholecalciferol] | < 0.1 | 0.9 | 2.29E+05 | 2.03E+05 | 3.04E+05 | 6.0 | 30.5 | 63.0 | 79.0 | 89.5 | ~0.6 | Avg Cell No. ([1]; Dose 0.0001 nM): 4.57E+05; Avg Cell No. ([1]; Dose 0.001 nM): 4.41E+05; Avg Cell No. ([1]; Dose 0.01 nM): 5.42E+05; Avg Cell No. ([1]; Dose 0.1 nM): 5.03E+05; Avg Cell No. ([1]; Dose 1.0 nM): 2.87E+05; activity at 100 fM ([1]; Homo sapiens, Keratinocyte, Dose 0.0001 nM, read-out: % of Control): 93.7%; activity at 1 pM ([1]; Homo sapiens, Keratinocyte, Dose 0.001 nM, read-out: % of Control): 90.3%; activity at 10 pM ([1]; Homo sapiens, Keratinocyte, Dose 0.01 nM, read-out: % of Control): 111%; activity at 0.0001 µM ([1]; Homo sapiens, Keratinocyte, Dose 0.1 nM, read-out: % of Control): 103%; activity at 0.001 µM ([1]; Homo sapiens, Keratinocyte, Dose 1.0 nM, read-out: % of Control): 58.7%; activity at 0.01 µM ([1]; Homo sapiens, Keratinocyte, Dose 10 nM, read-out: % of Control): 47%; activity at 0.1 µM ([1]; Homo sapiens, Keratinocyte, Dose 100 nM, read-out: % of Control): 41.6%; activity at 1 µM ([1]; Homo sapiens, Keratinocyte, Dose 1000 nM, read-out: % of Control): 6.23%; IC50 ([1]; Keratinocyte, human keratinocytes): 2 nM; IC50 (sebaceous cells; compared to vehicle treated control culture): < 1 nM
0.42 | C=C1/C(=C\C=C2/CCC[C@]3(C)C([C@H](C)CC#CC(O)(C(F)(F)F)C(F)(F)F)=CC[C@@H]23)C[C@@H](O)C[C@@H]1O [1,25-dihydroxy-16-ene-23 yne-26,27-hexafluoro-cholecalciferol, reference compound] | 0.63 | 0.95 |  |  |  |  |  |  |  |  |  | 
 | C=C1/C(=C\C=C2/CCC[C@]3(C)[C@@H]([C@H](C)CCCC(C)(C)O)CC[C@@H]23)C[C@@H](O)C[C@@H]1O [1,25-dihydroxy-cholecalciferol, 1,25-dihydroxycholecalciferol, reference compound] |  |  | 4.60E+05 | 3.12E+05 | 7.19E+05 | 2.0 | 5.0 | 3.5 | 26.0 | 84.0 | ~25 | Avg Cell No. ([1]; Dose 30 nM): 3.90E+05; Avg Cell No. ([1]; Dose 300 nM): 2.51E+05; activity at 0.01 µM [1, 2]: 94.3%; activity at 0.03 µM [1, 2]: 79.9%; activity at 0.1 µM [1, 2]: 64%; activity at 0.3 µM [1, 2]: 51.4%; activity at 1 µM [1, 2]: 14.7%; IC50 ([1]; Homo sapiens, Keratinocyte): 300 nM; IC50 (sebaceous cells): 50 nM
0.38 | C=C1/C(=C\C=C2/CCC[C@]3(C)C([C@H](C)C/C=C/C(O)(C(F)(F)F)C(F)(F)F)=CC[C@@H]23)C[C@@H](O)C[C@@H]1F [1α-Fluoro-25-hydroxy-16,23E-diene-26,27-hexafluorocholecalciferol] |  |  |  |  |  |  |  |  |  |  |  | 

— patent US5428029A, “Vitamin D3 fluorinated analogs” (Hoffmann-La Roche Inc., priority 1993, dated 1995)
